Reference: patent US20070099963A1, “Nematicidal compositions and methods” (priority 2005, published 2007)

Legend:
Thrips [1] = experiment: Thrips damage rating on cotton plants (Example 1); type: in vivo; conditions: cotton Delta and Pineland variety 555, rating 1 = no damage, 5 = plant dead; for Thrips Damage Rating 3 weeks: 3 weeks after planting; for Thrips Damage Rating 4 weeks: 4 weeks after planting
Text: This example illustrates the effect of a composition of the invention on cotton plant damage and plant height for cotton plants planted in soil known to have nematode (Rotylenchulus reniformis) pressure. The cotton plants utilized were commercially available Delta and Pineland variety 555.
The compositions described in Table 1 below were applied either as a seed treatment (Samples B, C, and E-G) or in furrow (Sample D) at the respective application rates set forth in Table 1.

Thrips [2] = experiment: Thrips damage rating on cotton plants (Example 2); type: in vivo; conditions: Fibermax cotton variety 960, rating 1 = no damage, 5 = plant dead; for Thrips Damage Rating 3 weeks: 3 weeks after planting; for Thrips Damage Rating 4 weeks: 4 weeks after planting
Text: This example illustrates the effect of the compositions from Table 1 for cotton plants planted in soil known to have nematode (Rotylenchulus reniformis) pressure. FIGS. 4 and 5 illustrate the Thrips damage ratings at three and four weeks, respectively, after planting. FIG. 6 illustrates the plant height seven weeks after planting. The cotton plants utilized were commercially available Fibermax cotton variety 960.

SMILES	Thrips Damage Rating 3 weeks (Thrips [1])	Thrips Damage Rating 4 weeks (Thrips [1])	Thrips Damage Rating 3 weeks (Thrips [2])	Thrips Damage Rating 4 weeks (Thrips [2])
O=[N+]([O-])NC1=NCCN1Cc1ccc(Cl)nc1 [B, imidacloprid]	2	2.3	2.63	2.5
O=[N+]([O-])NC1=NCCN1Cc1ccc(Cl)nc1 [E, imidacloprid]	2.25	2.4	2.88	3
CNC(=O)O/N=C/C(C)(C)SC [Sample D, aldicarb]	1.13	1.5	2.5	2.1
